“And” between values parts separate entries of the source, which are not always exact repeats. Identical values can stand only once.
Assays:
[1] = microbe, parasite or virus in culture; details: Mycobacterium tuberculosis, 96 h, read-out: pIC50 (converted)
[2] = target: T1, Coenzyme A biosynthesis bifunctional protein CoaBC (Mycobacterium tuberculosis (strain ATCC 25618 / H37Rv), UniProt P9WNZ1); test: Biomol Green assay for MtCoaBC inhibitor, OD650 read; type: functional
T1 sequence (P9WNZ1 whole entry): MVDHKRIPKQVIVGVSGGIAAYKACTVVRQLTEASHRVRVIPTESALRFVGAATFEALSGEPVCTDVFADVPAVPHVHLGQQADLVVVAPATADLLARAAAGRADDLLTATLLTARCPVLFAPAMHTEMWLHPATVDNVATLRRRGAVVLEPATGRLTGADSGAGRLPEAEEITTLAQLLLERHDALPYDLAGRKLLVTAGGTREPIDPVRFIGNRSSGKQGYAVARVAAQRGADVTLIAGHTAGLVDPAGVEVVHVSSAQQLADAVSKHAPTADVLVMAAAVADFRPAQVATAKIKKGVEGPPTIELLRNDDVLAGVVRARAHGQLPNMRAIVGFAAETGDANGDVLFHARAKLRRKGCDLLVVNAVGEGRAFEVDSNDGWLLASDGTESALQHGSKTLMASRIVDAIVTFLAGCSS

[3] = microbe, parasite or virus in culture; details: Mycobacterium tuberculosis, 72 h, read-out: pIC50 (converted)
ClpP1P2 = ClpP1P2 (Mycobacterium tuberculosis (strain ATCC 25618 / H37Rv), UniProt P9WPC3+P9WPC5); test: in vitro assay to detect presence of AMC directly proportional to the activity of ClpP1P2. GHDDI collaboration.; type: functional
Histidine--tRNA ligase = target: T2, Histidine--tRNA ligase (Leishmania infantum, UniProt A4I591); test: Leishmania infantum Histidine tRNA synthetase (LdHisRS); type: functional
T2 sequence (A4I591 whole entry): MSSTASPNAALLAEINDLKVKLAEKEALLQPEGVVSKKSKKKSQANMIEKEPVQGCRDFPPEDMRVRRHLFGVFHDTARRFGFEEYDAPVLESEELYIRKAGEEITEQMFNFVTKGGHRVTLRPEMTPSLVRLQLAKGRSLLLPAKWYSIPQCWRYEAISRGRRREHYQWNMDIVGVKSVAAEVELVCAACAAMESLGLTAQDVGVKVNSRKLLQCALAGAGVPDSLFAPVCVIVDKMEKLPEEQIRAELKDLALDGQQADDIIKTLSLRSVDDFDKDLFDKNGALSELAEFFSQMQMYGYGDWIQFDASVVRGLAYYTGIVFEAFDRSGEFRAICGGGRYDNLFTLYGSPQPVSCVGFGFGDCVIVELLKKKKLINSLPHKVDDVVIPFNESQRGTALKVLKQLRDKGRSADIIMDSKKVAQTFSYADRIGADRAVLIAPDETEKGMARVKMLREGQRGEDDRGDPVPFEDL

Plasmodium falciparum = test: Calibr Malaria Delayed Death Assay SOP; type: functional, organism-based; details: for IC50: Plasmodium falciparum
Tryptophan--tRNA ligase = Tryptophan--tRNA ligase (Mycobacterium tuberculosis (strain ATCC 25618 / H37Rv), UniProt P9WFT3); test: Biochemical assay for Mt-TrpRS; type: functional
[4] = In vitro enzyme assay to detect hydrolysis of chlorophenol red-beta-D-[…] directly proportional to the number of Toxoplasma stably expressing beta-galactosidase; type: functional, organism-based, Toxoplasma gondii; details: for IC50: Toxoplasma gondii

Row | Compound | IC50 [2] | other results
1 | COc1c(Cl)cc(Cl)cc1CN1CCC(C(N)=O)C1 (stereo not given) | > 30.2 µM | IC50 [1]: > 50.1 µM; IC50 [3]: > 50.1 µM
2 | CC(C)Cc1nc(CO)n(-c2ccc3c(c2)OCCO3)n1 | > 30.2 µM | IC50 (ClpP1P2): > 100 µM
3 | COc1ccc(-n2cc(CNC(=O)c3ccc[nH]3)nn2)cc1 | > 30.2 µM | IC50 (Histidine--tRNA ligase): 33.4 µM and 45.8 µM
4 | Cc1n[nH]c(C)c1-c1c(C#N)c(N)nc2c1CCc1[nH]ccc1-2 | > 30.2 µM | IC50 (ClpP1P2): > 100 µM; IC50 (Histidine--tRNA ligase): 16.8 µM and 18.1 µM
5 | COc1ccc(C(O)CN2CC(n3nc(C)cc3C)C2)cc1 (stereo not given) | > 30.2 µM | pIC50 (Plasmodium falciparum): 5.759; IC50 (Plasmodium falciparum): 1.76 µM
6 | c1ccc(Cn2cc(CNCC3CNc4ccnn4C3)cn2)cc1 (stereo not given) | > 30.2 µM | IC50 (Tryptophan--tRNA ligase): > 195 µM
7 | COc1ccsc1C(=O)Nc1cc(Br)c(=O)n(C)c1 | > 30.2 µM | IC50 (Histidine--tRNA ligase): 19.7 µM and 23.3 µM
8 | CCN(CC)CCNS(=O)(=O)c1cccc(CSC)c1 | > 30.2 µM | pIC50 (Plasmodium falciparum): 6.161; IC50 (Plasmodium falciparum): 0.551 µM
9 | Cn1cc(CNC2CCCOc3c2ccc2ccccc32)cn1 (stereo not given) | > 30.2 µM | pIC50 (Plasmodium falciparum): 6.02; IC50 (Plasmodium falciparum): 0.871 µM
10 | Cc1c[nH]nc1C1CCN(C(=O)C2CCOCC2)C1 (stereo not given) | > 30.2 µM | IC50 (Tryptophan--tRNA ligase): > 195 µM
11 | COc1ccc(-n2c(CCC(=O)O)nc3ccccc32)cc1CO | > 50.1 µM | IC50 (Histidine--tRNA ligase): 68.6 µM and 44 µM
12 | CC(C)(C)CN1CCN2C(=O)N(C3CCCCC3)C[C@H]2C1 | > 30.2 µM | IC50 [1]: > 50.1 µM; IC50 [3]: > 50.1 µM
13 | Cc1nc(-c2ccc(CC(=O)N3CCN(C(=O)C(C)C)CC3)cc2)cs1 | > 30.2 µM | IC50 (ClpP1P2): 8.96 µM; IC50 (Histidine--tRNA ligase): 24.8 µM and 12.4 µM
14 | CS(=O)(=O)N1CCC2(CC1)CN(CCn1cccn1)C(=O)CO2 | > 50.1 µM | IC50 (Histidine--tRNA ligase): > 100 µM
15 | Cc1ccc(C)n1-c1ccc(C(=O)NCCNc2ncccn2)cc1 | > 30.2 µM | IC50 (Histidine--tRNA ligase): > 100 µM
16 | Cc1ccc(C(=O)Nc2c(C(=O)N(C)C)nn(C)c2C)cc1C | > 30.2 µM | IC50 [4]: > 50.1 µM
17 | CCN(Cc1ccc2cccc(O)c2n1)CC1CCCO1 (stereo not given) | > 30.2 µM | IC50 (Histidine--tRNA ligase): 18.6 µM and 12.3 µM
18 | Cc1nn(C)c(C)c1CN(C)C(=O)c1cc(NC(=O)C2CC2)n(C)n1 | > 30.2 µM | IC50 [4]: > 50.1 µM
19 | COc1ccc(-c2nc(CCNc3nnc(C)c(C)c3C#N)co2)cc1 | > 30.2 µM | IC50 (Histidine--tRNA ligase): 58.1 µM and 60.7 µM
20 | O=S(=O)(CCCn1cncn1)Cc1ccc(F)cc1Cl | 4.13 µM and 4.68 µM | IC50 (Histidine--tRNA ligase): 10.5 µM and 17.6 µM
21 | Cc1cc(CCC2CN(CC3(O)CCCCC3)CCO2)ncn1 (stereo not given) | > 30.2 µM | IC50 (Tryptophan--tRNA ligase): > 195 µM
22 | CCn1c(NCc2ccccn2)nc2c(C)nn(C)c2c1=O | > 30.2 µM | pIC50 [4]: < 4.3 and 4.672
23 | Cc1ccc(CN2C[C@@H]3CCN(Cc4ccncc4)C(=O)[C@H]3C2)s1 | > 30.2 µM | IC50 (ClpP1P2): 34.3 µM
24 | Cc1ccc(NS(=O)(=O)c2cnn(-c3ccccc3)c2)c(C(=O)O)c1 | 22.5 µM and 20.5 µM | IC50 (Histidine--tRNA ligase): 38.9 µM and 18.2 µM
25 | N#Cc1ccsc1N1CCC(Sc2ccncc2)C1=O (stereo not given) | > 30.2 µM | IC50 (Histidine--tRNA ligase): 17.7 µM and 33 µM

Row | Compound | IC50 [2] | other results
26 | COc1cccc(CNc2cc(C)nc(-c3ccncc3)n2)c1OC | > 30.2 µM | pIC50 (Plasmodium falciparum): 6.336; IC50 (Plasmodium falciparum): 0.465 µM; IC50 (Histidine--tRNA ligase): 91.8 µM and > 100 µM
27 | Cc1cc(N2CCC(O)CC2)nc(C2CCCN2C)n1 (stereo not given) | > 30.2 µM | IC50 (Histidine--tRNA ligase): 31 µM and 38.1 µM
28 | O=C(NCc1cccnc1N1CCc2ccccc2C1)c1cc(=O)[nH][nH]1 | > 30.2 µM | IC50 (Histidine--tRNA ligase): 44.8 µM and 45.1 µM
29 | O=C(C1CC1)N1CCC(c2nc(O)c3c(n2)CCN(C2CCCC2)C3)C1 (stereo not given) | > 30.2 µM | 
30 | Cc1c(CN2CCCC(O)C2)[nH]c2ccc(F)cc12 (stereo not given) | > 30.2 µM | 
31 | COc1ccc(-n2cc(CNC(=O)c3cc[nH]n3)nn2)cc1 | > 30.2 µM | 
32 | Cc1nc(CN2CCCC2Cn2cncn2)nc2ccccc12 (stereo not given) | > 30.2 µM | 
33 | CC(C)=CCn1ncc(N2CCOCC2)cc1=O | > 30.2 µM | 
34 | COc1ccc(NC2(C(=O)N3CCCn4cncc4C3)CCCC2)cc1 | > 30.2 µM | 
35 | CC(O)c1cn(Cc2ccc(Cl)cc2)nn1 (stereo not given) | > 30.2 µM | 
36 | O=C(NC1CCCC1)[C@@H]1CN(Cc2nccs2)C[C@H]2OCC[C@H]21 | > 30.2 µM | 
37 | Cc1nccn1-c1cccc(C2CCCN2)n1 (stereo not given) | > 30.2 µM | IC50 (ClpP1P2): > 100 µM
38 | O=c1n(CC2COCCO2)nc(CC2CCNCC2)n1-c1ccccc1 (stereo not given) | > 30.2 µM | 
39 | COc1cccc(Cc2nc3c([nH]2)CC(C)(C)CNC3=O)c1OC | > 30.2 µM | 
40 | Cc1cccc(CN2C[C@@H](F)[C@@H](OCc3nc4ccccc4[nH]3)C2)n1 | > 30.2 µM | 
41 | CC(C)C(=O)N1CCCC(Cc2cccnc2)C1 (stereo not given) | > 30.2 µM | 
42 | Cc1ccc(OCCC(=O)N2CCOCC2c2ncon2)cc1C (stereo not given) | > 30.2 µM | 
43 | O=C(NCC(O)c1ccsc1)c1sccc1OC(F)F (stereo not given) | > 30.2 µM | 
44 | CCCS(=O)(=O)NCC(O)c1c(Cl)cccc1Cl (stereo not given) | > 30.2 µM | 
45 | Cc1nnc(N2C[C@@H](OCC3CCCC3)[C@H]3OCCC[C@H]32)s1 | > 30.2 µM | 
46 | c1csc(C2(NCc3csc(C4CC4)n3)CCCC2)n1 | > 30.2 µM | IC50 (Histidine--tRNA ligase): 57.3 µM and 56.6 µM
47 | Cc1cc(N2CCC(c3ncc[nH]3)CC2)nc(N)n1 | > 30.2 µM | 
48 | O=C(NCCC(=O)N1CCCC1)c1ccc(SCc2cccnc2)cc1 | > 30.2 µM | 
49 | COCCN1CCN(Cc2cnc(C3(C)CCCCO3)nc2)CC1 (stereo not given) | > 50.1 µM | 
50 | Cc1cccc(CS(=O)(=O)NCc2nn(C)c3c2COCC3)c1 | > 30.2 µM | 

Row | Compound | IC50 [2] | other results
51 | CCN1CCCC1CNC(=O)Cc1c(-c2ccc(Cl)cc2)n[nH]c1C (stereo not given) | > 30.2 µM | 
52 | O=C(NCc1ccco1)[C@H]1C[C@@H]2CCN(c3ncccn3)C[C@H]2O1 | > 30.2 µM | 
53 | Fc1cccc(-c2nc(CN3CCCC(Cn4cncn4)C3)co2)c1 (stereo not given) | > 30.2 µM | 
54 | Cc1cc(C)n(C2CN(c3ncnc4c3CCC4)C2)n1 | > 30.2 µM | 
55 | Cc1nn2cccnc2c1C(=O)N1CCCC(n2ccnc2C)C1 (stereo not given) | > 30.2 µM | 
56 | Cc1nn(C)c(Cl)c1C1CCCN1Cc1nc(-c2ccco2)no1 (stereo not given) | > 30.2 µM | 
57 | CCN(C)C[C@@H]1CN(C(=O)NC2CCCCC2)C[C@@H]1CO | > 30.2 µM | 
58 | CN(C)c1ncc(CN2CCCC(Nc3ccc4c(c3)OCCO4)C2)s1 (stereo not given) | > 30.2 µM | 
59 | Cc1cc(C(=O)N[C@H](C)c2onc(-c3cccnc3)c2C(=O)O)c(C)o1 | > 30.2 µM | 
60 | Cc1cncc(C(=O)N2CCO[C@H]3[C@H](OCCN(C)C)CC[C@@H]32)c1 | > 30.2 µM | 
61 | CC(CO)(NC(=O)NCc1ccc(Br)s1)C1CC1 (stereo not given) | > 30.2 µM | 
62 | CN1C(=O)C2(CCN(c3nccc4occc34)CC2)c2ccccc21 | > 30.2 µM | 
63 | CCC(NC(=O)c1cc(CC(C)C)nn1C)c1cccc(C)n1 (stereo not given) | > 30.2 µM | 
64 | CN1CCOC(CNCC(=O)NCCC2=CCCCC2)C1 (stereo not given) | > 30.2 µM | 
65 | Cc1cc(C)n(C2CN(CC(=O)N(C)Cc3cnn(C)c3)C2)n1 | > 30.2 µM | 
66 | COc1ccc(-c2noc(C3CC(C(C)C)=NO3)n2)cc1 (stereo not given) | > 30.2 µM | 
67 | Cc1ccc(NC2CCN(C(=O)c3cccc4[nH]ncc34)CC2)nn1 | > 30.2 µM | 
68 | O=C1O[C@@H]2CN(c3cnccn3)C[C@@H]2N1CCCc1ccc(F)cc1 | > 30.2 µM | 
69 | Cc1c(C(=O)N2CCC2)nnn1-c1ccc2ncccc2c1 | > 30.2 µM | 
70 | CS(=O)(=O)c1ccc(CN2C[C@H]3CC[C@@H]2CN(c2ncccn2)C3)cc1 | > 30.2 µM | 
71 | COCCC(=O)NCc1ccc(-c2ccccc2C(=O)O)nc1 | > 30.2 µM | 
72 | Cc1ccc(-c2cc(-c3nc(CN4CCN(C)CC4)no3)[nH]n2)s1 | > 30.2 µM | IC50 (ClpP1P2): > 100 µM
73 | C[C@H]1CN2C[C@H](O)CC2CN1Cc1ccc2nccnc2c1 (stereo not given in full) | > 30.2 µM | 
74 | COCC1c2nnn(CC3CC3)c2CCN1C(=O)c1cccn1C (stereo not given) | > 30.2 µM | 
75 | CN(C)C(=O)CN1CCC2(CCCN(Cc3cccn3C)C2)C1=O (stereo not given) | > 30.2 µM | 

Source: ChEMBL document CHEMBL3988442, “University of Dundee, Small-Polar-MMV Screening Library” (2021)
